The source of these data is ChEMBL document CHEMBL3352572, “Design, synthesis and antioxidant activity evaluation of novel β-elemene derivatives” (Bioorg Med Chem Lett, 2014).

Data set [1] deals with HUVEC. In words: Antioxidant activity in HUVEC assessed as suppression of ROS production by measuring fluorescent intensity index at 5 uM pre-incubated for 24 hrs before H2O2 stimulation for 2 hrs by DCF dye based fluorimetric assay. The class given is functional, Homo sapiens.
Data set [2] concerns HUVEC. In words: Increase in nitric oxide secretion in H2O2-treated HUVEC at 0.5 to 50 uM pre-incubated for 24 hrs before H2O2 stimulation for 2 hrs. The following applies: Homo sapiens. The class given is functional, cell-based.
Data set [3] concerns HUVEC. In words: Cytoprotective activity in H2O2-treated HUVEC assessed as cell survival at 0.5 uM pre-incubated for 24 hrs before H2O2 stimulation for 2 hrs by MTT assay (reference value: 66.91%). Type of data set: functional. To be noted: Homo sapiens, read-out: Survival. For orientation: Tetrazolium assays rely on reduction of a dye to a coloured formazan, in cell work by metabolically active cells.

Data set [4] deals with HUVEC. The data set is described as follows: Reduction in LDH release in H2O2-treated HUVEC at 0.5 to 50 uM pre-incubated for 24 hrs before H2O2 stimulation for 2 hrs. Type of data set: functional, cell-based. The following applies: Homo sapiens. On the technique in general: LDH leaks from cells whose membrane has failed.
Data set [5] deals with HUVEC. The data set is described as follows: Cytoprotective activity in H2O2-treated HUVEC assessed as reduction in H2O2-induced cell death at 0.5 to 50 uM pre-incubated for 24 hrs before H2O2 stimulation for 2 hrs by MTT assay. Type of data set: functional, cell-based. The following applies: Homo sapiens.
For data set [6], the system named is HUVEC. In words: Cytotoxicity against HUVEC assessed as cell death 1000 uM after 24 hrs by MTT assay. The class given is cell-based. The following applies: human.
The test system of data set [7] is HUVEC. The data set is described as follows: Antioxidant activity in HUVEC assessed as suppression of ROS production pre-incubated for 24 hrs before H2O2 stimulation for 2 hrs by DCF dye based fluorescence microscopy. The class given is functional, cell-based. To be noted: Homo sapiens.
Data set [8] is described as follows: Cytotoxicity against HUVEC assessed as cell survival at 0.5 to 50 uM after 24 hrs by MTT assay. Type of data set: cell-based. To be noted: human, HUVEC cells; read-out: Survival.
In data set [9] the test system is HUVEC. The data set is described as follows: Reduction in MDA level in H2O2-treated HUVEC at 0.5 to 50 uM pre-incubated for 24 hrs before H2O2 stimulation for 2 hrs. The class given is functional, cell-based. The following applies: Homo sapiens.
In data set [10] the test system is HUVEC. The data set is described as follows: Antioxidant activity in HUVEC assessed as suppression of ROS production at 0.5 uM pre-incubated for 24 hrs before H2O2 stimulation for 2 hrs by DCF dye based fluorescence microscopy. Type of data set: functional, cell-based. To be noted: Homo sapiens.
Data set [11] concerns HUVEC. In words: Cytoprotective activity in H2O2-treated HUVEC assessed as cell survival at 50 uM pre-incubated for 24 hrs before H2O2 stimulation for 2 hrs by MTT assay (reference value: 66.91%). Type of data set: functional. The following applies: Homo sapiens, read-out: Survival.
The test system of data set [12] is HUVEC. The data set is described as follows: Increase in SOD activity in H2O2-treated HUVEC at 0.5 to 50 uM pre-incubated for 24 hrs before H2O2 stimulation for 2 hrs. The class given is functional, cell-based. To be noted: Homo sapiens.
The test system of data set [13] is HUVEC. The data set is described as follows: Antioxidant activity in HUVEC assessed as suppression of ROS production by measuring fluorescent intensity index at 10 uM pre-incubated for 24 hrs before H2O2 stimulation for 2 hrs by DCF dye based fluorimetric assay. The class given is functional, Homo sapiens.
For data set [14], the system named is HUVEC. The data set is described as follows: Antioxidant activity in HUVEC assessed as suppression of ROS production by measuring fluorescent intensity index at 100 uM pre-incubated for 24 hrs before H2O2 stimulation for 2 hrs by DCF dye based fluorimetric assay. The class given is functional, cell-based. The following applies: Homo sapiens.

A value given as a limit tells only on which side of the number the result lay.

In the case of `C=C[C@]1(C)CC[C@@H](C(=C)C)C[C@H]1C(=C)COC(=O)c1cccc(F)c1`, the Flu intensity in the data set with HUVEC [1] is 1.39.

`C=C[C@]1(C)CC[C@@H](C(=C)C)C[C@H]1C(=C)COC(=O)c1ccc(OC)cc1`: the Flu intensity with HUVEC [1] stood at 1.387.

With `C=C[C@]1(C)CC[C@@H](C(=C)COC(=O)c2ccc(Cl)cc2)C[C@H]1C(=C)C`, in the data set on HUVEC [1], the Flu intensity stood at 1.324.

For the molecule `C=C[C@]1(C)CC[C@@H](C(=C)COC(C)=O)C[C@H]1C(=C)C`, in the data set on HUVEC [1], the Flu intensity is recorded as 1.391.

For `C=C[C@]1(C)CC[C@@H](C(=C)COC(=O)CCC(=O)OCC(=C)[C@@H]2CC[C@@](C)(C=C)[C@H](C(=C)C)C2)C[C@H]1C(=C)C`, the Activity entry was “Dose-dependent effect” with HUVEC [2], “Dose-dependent effect” in the data set on HUVEC [5], “<= 50%” in the data set on HUVEC [6] and “Dose-dependent effect” in the data set with HUVEC [12]. Also, in the data set on HUVEC [3], the viability at 0.5 µM was found to be 81.2%. The inhibition result in the data set with HUVEC [4], with HUVEC [7], in the data set on HUVEC [9] and in the data set with HUVEC [10] was “Dose-dependent effect” in each case. The viability at 24 h, up to 50 µM in data set [8] was greater than 92%. Moreover, the Flu intensity in the data set on HUVEC [1] was found to be 1.092. The viability at 50 µM with HUVEC [11] was 100%.

Take `C=C[C@]1(C)CC[C@@H](C(=C)C)C[C@H]1C(=C)COC(C)=O`: the Flu intensity with HUVEC [1] turned out to be 1.322.

Regarding `C=C[C@]1(C)CC[C@@H](C(=C)COC(=O)CCC(=O)O)C[C@H]1C(=C)C`, in the data set with HUVEC [1], the Flu intensity came to 1.403.

Take `C=C[C@]1(C)CC[C@@H](C(=C)CO)C[C@H]1C(=C)C`: in the data set with HUVEC [1], the Flu intensity amounted to 1.291.

Take `C=C[C@]1(C)CC[C@@H](C(=C)C)C[C@H]1C(=C)COC(=O)c1ccc(C)cc1`: the Flu intensity in the data set on HUVEC [1] stood at 1.322.

`C=C[C@]1(C)CC[C@@H](C(=C)COC(=O)c2ccccc2O)C[C@H]1C(=C)C`: in the data set with HUVEC [1], the Flu intensity is given as 1.286.

In the case of `C=C[C@]1(C)CC[C@@H](C(=C)COC(=O)c2ccccc2C(=O)OCC(=C)[C@@H]2CC[C@@](C)(C=C)[C@H](C(=C)C)C2)C[C@H]1C(=C)C`, the Activity result with HUVEC [2] is “Dose-dependent effect”; in the data set with HUVEC [5] it was “Dose-dependent effect”; in the data set on HUVEC [6], “<= 50%”; in the data set with HUVEC [12] it was “Dose-dependent effect”. Besides, the inhibition result in the data set with HUVEC [4], in the data set with HUVEC [7], in the data set on HUVEC [9] and with HUVEC [10] was “Dose-dependent effect” throughout. Also, the viability at 24 h, up to 50 µM in data set [8] was greater than 92%. In the data set on HUVEC [1], the Flu intensity was found to be 1.114. Besides, in the data set with HUVEC [11], the viability at 50 µM stood at 97.9%.

`C=C[C@]1(C)CC[C@@H](C(=C)C)C[C@H]1C(=C)COC(=O)c1ccncc1`: in the data set on HUVEC [1], the Flu intensity was 1.411.

Regarding `C=C[C@]1(C)CC[C@@H](C(=C)C)C[C@H]1C(=C)COC(=O)c1ccccc1C(=O)O`, the Flu intensity with HUVEC [1] stood at 1.415.

Take `C=C[C@]1(C)CC[C@@H](C(=C)COC(=O)CC)C[C@H]1C(=C)C`: the Flu intensity in the data set on HUVEC [1] is on record as 1.322.

Consider `C=C[C@]1(C)CC[C@@H](C(=C)COC(=O)CCC)C[C@H]1C(=C)C`, for which, in the data set with HUVEC [1], the Flu intensity was determined as 1.365.

As to `C=C[C@]1(C)CC[C@@H](C(=C)COC(=O)c2ccc([N+](=O)[O-])cc2)C[C@H]1C(=C)C`, in the data set on HUVEC [1], the Flu intensity worked out at 1.304.

As for `C=C[C@]1(C)CC[C@@H](C(=C)C)C[C@H]1C(=C)COC(=O)c1ccccc1`, in the data set on HUVEC [1], the Flu intensity is reported as 1.445.

For `C=C[C@]1(C)CC[C@@H](C(=C)COC(=O)c2ccccc2C(=O)O)C[C@H]1C(=C)C`, in the data set on HUVEC [1], the Flu intensity was 1.416.

For the molecule `C=C[C@]1(C)CC[C@@H](C(=C)C)C[C@H]1C(=C)COC(=O)c1ccc(Cl)cc1`, the Flu intensity with HUVEC [1] stood at 1.458.

Regarding `C=C[C@]1(C)CC[C@@H](C(=C)C)C[C@H]1C(=C)COC(=O)c1ccccc1Cl`, the Flu intensity in the data set on HUVEC [1] was 1.443.

On to `C=C[C@]1(C)CC[C@@H](C(=C)C)C[C@H]1C(=C)COC(=O)CCC(=O)O`, for which the Flu intensity with HUVEC [1] came to 1.468.

For `C=C[C@]1(C)CC[C@@H](C(=C)C)C[C@H]1C(=C)COC(=O)CCC`, the Flu intensity in the data set with HUVEC [1] was 1.338.

For `C=C[C@]1(C)CC[C@@H](C(=C)C)C[C@H]1C(=C)COC(=O)c1ccc([N+](=O)[O-])cc1`, the Flu intensity with HUVEC [1] is recorded as 1.393.

`C=C[C@]1(C)CC[C@@H](C(=C)C)C[C@H]1C(=C)C`: the values for the Flu intensity with HUVEC [13] and with HUVEC [1] were 1.23 and 1.281, respectively.

As to `C=C[C@]1(C)CC[C@@H](C(=C)COC(=O)c2cccc(F)c2)C[C@H]1C(=C)C`, the Flu intensity in the data set with HUVEC [1] was 1.39.

In the case of `C=C[C@]1(C)CC[C@@H](C(=C)C)C[C@H]1C(=C)COC(=O)CCC(=O)OCC(=C)[C@@H]1C[C@H](C(=C)C)CC[C@@]1(C)C(=C)C`, the Flu intensity in the data set on HUVEC [1] came out at 1.123.

Consider `C=C[C@]1(C)CC[C@@H](C(=C)COC(=O)c2ccco2)C[C@H]1C(=C)C`, for which the Flu intensity in the data set with HUVEC [1] came out at 1.488.

In the case of `C=C[C@]1(C)CC[C@@H](C(=C)C)C[C@H]1C(=C)COC(=O)c1ccccc1O`, the Flu intensity in the data set on HUVEC [1] is 1.376.

`C=C[C@]1(C)CC[C@@H](C(=C)COC(=O)c2ccc(OC)cc2)C[C@H]1C(=C)C`: the Flu intensity with HUVEC [1] amounted to 1.429.

On to `C=C[C@]1(C)CC[C@@H](C(=C)C)C[C@H]1C(=C)COC(=O)c1cccnc1`, for which, in the data set on HUVEC [1], the Flu intensity was found to be 1.397.

For `C=C[C@]1(C)CC[C@@H](C(=C)C)C[C@H]1C(=C)COC(=O)c1ccco1`, in the data set on HUVEC [1], the Flu intensity is 1.39.

Turning to `C=C[C@]1(C)CC[C@@H](C(=C)C)C[C@H]1C(=C)CO`, the Flu intensity in the data set on HUVEC [1] is listed as 1.37.

For the molecule `C=C[C@]1(C)CC[C@@H](C(=C)COC(=O)c2ccccc2Cl)C[C@H]1C(=C)C`, in the data set on HUVEC [1], the Flu intensity was 1.388.

Take `C=C[C@]1(C)CC[C@@H](C(=C)C)C[C@H]1C(=C)COC(=O)c1ccccc1C(=O)OCC(=C)[C@@H]1C[C@H](C(=C)C)CC[C@@]1(C)C(=C)C`: the Flu intensity in the data set with HUVEC [1] is recorded as 1.168.

`C=C[C@]1(C)CC[C@@H](C(=C)COC(=O)c2ccc(F)cc2)C[C@H]1C(=C)C`: the Flu intensity with HUVEC [1] was 1.417.

Consider `C=C[C@]1(C)CC[C@@H](C(=C)COC(=O)c2ccccc2)C[C@H]1C(=C)C`, for which the Flu intensity in the data set with HUVEC [1] came to 1.355.

In the case of `C=C[C@]1(C)CC[C@@H](C(=C)COC(=O)c2cccnc2)C[C@H]1C(=C)C`, in the data set on HUVEC [1], the Flu intensity is recorded as 1.524.

For VITAMIN E, in the data set on HUVEC [14], the Flu intensity came to 1.23.

Consider `C=C[C@]1(C)CC[C@@H](C(=C)C)C[C@H]1C(=C)COC(=O)c1ccc(F)cc1`, for which the Flu intensity in the data set with HUVEC [1] came out at 1.306.

Turning to `C=C[C@]1(C)CC[C@@H](C(=C)COC(=O)c2ccncc2)C[C@H]1C(=C)C`, the Flu intensity in the data set with HUVEC [1] came out at 1.447.

Regarding `C=C[C@]1(C)CC[C@@H](C(=C)COC(=O)c2ccc(C)cc2)C[C@H]1C(=C)C`, the Flu intensity in the data set with HUVEC [1] is reported as 1.411.

For `C=C[C@]1(C)CC[C@@H](C(=C)C)C[C@H]1C(=C)COC(=O)CC`, the Flu intensity in the data set on HUVEC [1] turned out to be 1.383.
